Measurements from ChEMBL document CHEMBL1201862, “PubChem BioAssay data set” (2004).
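Grown in 96-well plates, cells were treated for 48 hours with each compound at five concentrations. Insufficient inhibition: endpoint recorded as highest concentration tested. GI50 marks 50% less growth.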 Calls of active or inactive are those of the source. No stated cut-off is given here; in the data, active = GI50 up to about 1.1 µM and inactive = higher.

Key:
Test in all cases: inhibition of tumour cell growth, NCI panel, 48 h
[1] = test system: ACHN
[2] = test system: CCRF-CEM
[3] = test system: HCC 2998
[4] = test system: HCT-116
[5] = test system: HL-60
[6] = test system: HOP-62
[7] = test system: KM12
[8] = test system: M14
[9] = test system: MCF7
[10] = test system: MDA-MB-231
[11] = test system: MOLT-4
[12] = test system: NCI/ADR-RES
[13] = test system: OVCAR-8
[14] = test system: SK-MEL-28
[15] = test system: SK-OV-3
[16] = test system: SN12C
[17] = test system: SNB-19
[18] = test system: TK-10
[19] = test system: U-251
[20] = test system: UO-31

Row | SMILES | GI50 [1] | GI50 [2] | GI50 [3] | GI50 [4] | GI50 [5] | GI50 [6] | GI50 [7] | GI50 [8] | GI50 [9] | GI50 [10] | GI50 [11] | GI50 [12] | GI50 [13] | GI50 [14] | GI50 [15] | GI50 [16] | GI50 [17] | GI50 [18] | GI50 [19] | GI50 [20]
1 | CN(C)CCCN1c2ccccc2CCc2cccc([N+](=O)[O-])c21 | 22.5 µM (inactive) | 5.38 µM (inactive) | 17.7 µM (inactive) | 15.6 µM (inactive) | 15.5 µM (inactive) | 16.5 µM (inactive) | 17.1 µM (inactive) | 15.7 µM (inactive) | 16.8 µM (inactive) | 25.2 µM (inactive) | 13.7 µM (inactive) | 16.5 µM (inactive) | 15.9 µM (inactive) | 13.4 µM (inactive) | 28.6 µM (inactive) | 21.3 µM (inactive) | 47.2 µM (inactive) | 21.5 µM (inactive) | 18.2 µM (inactive) | 17.4 µM (inactive)
2 | CN(C)CCN(c1ccccn1)c1ccccn1 | > 100 µM (inactive) | > 100 µM (inactive) | > 100 µM (inactive) | > 100 µM (inactive) | > 100 µM (inactive) | > 100 µM (inactive) | > 100 µM (inactive) | > 100 µM (inactive) | > 100 µM (inactive) | > 100 µM (inactive) | > 100 µM (inactive) | > 100 µM (inactive) | > 100 µM (inactive) | > 100 µM (inactive) | > 100 µM (inactive) | > 100 µM (inactive) | > 100 µM (inactive) | > 100 µM (inactive) | > 100 µM (inactive) | > 100 µM (inactive)
3 | Cc1nc(=O)[nH]c2c1C(=O)N(C(C)C)C(NC(C)C)S2 (stereo not given) | > 100 µM (inactive) | > 100 µM (inactive) | > 100 µM (inactive) | > 100 µM (inactive) | > 100 µM (inactive) | > 100 µM (inactive) | > 100 µM (inactive) | > 100 µM (inactive) | > 100 µM (inactive) | > 100 µM (inactive) | > 100 µM (inactive) | > 100 µM (inactive) | > 100 µM (inactive) | > 100 µM (inactive) | > 100 µM (inactive) | > 100 µM (inactive) | > 100 µM (inactive) | > 100 µM (inactive) | > 100 µM (inactive) | > 100 µM (inactive)
4 | O=C(CSc1nc(O)nc2[nH]cnc12)Nc1ccccc1 | > 100 µM (inactive) | 33.7 µM (inactive) | > 100 µM (inactive) | 91.2 µM (inactive) | > 100 µM (inactive) | 52.8 µM (inactive) | > 100 µM (inactive) | > 100 µM (inactive) | 44.6 µM (inactive) | > 100 µM (inactive) | 93.5 µM (inactive) | > 100 µM (inactive) | > 100 µM (inactive) | > 100 µM (inactive) | > 100 µM (inactive) | 48.5 µM (inactive) | > 100 µM (inactive) | > 100 µM (inactive) | 33.1 µM (inactive) | > 100 µM (inactive)
5 | O=C(Nc1c(Cl)cc([N+](=O)[O-])cc1Cl)C(=O)C1C(=O)NC(=S)NC1=O | > 100 µM (inactive) | > 100 µM (inactive) | > 100 µM (inactive) | > 100 µM (inactive) | > 100 µM (inactive) | > 100 µM (inactive) | > 100 µM (inactive) | > 100 µM (inactive) | > 100 µM (inactive) | > 100 µM (inactive) | > 10 µM (inactive) | > 100 µM (inactive) | > 100 µM (inactive) | > 100 µM (inactive) | > 100 µM (inactive) | > 100 µM (inactive) | > 100 µM (inactive) | > 100 µM (inactive) | > 100 µM (inactive) | > 100 µM (inactive)
6 | CC1(C)[C@@H]2C[C@H]1C(Cc1cccc(C[C@H]3c4cc(-c5ccccn5)ncc4[C@H]4C[C@@H]3C4(C)C)c1)c1cc(-c3ccccn3)ncc12 (stereo not given in full) | 0.328 µM (active) | 0.337 µM (active) | 0.923 µM (active) | 0.428 µM (active) | 0.295 µM (active) | 1.28 µM (inactive) | 0.647 µM (active) | 0.485 µM (active) | 0.547 µM (active) | 22.6 µM (inactive) | 0.312 µM (active) | 4.06 µM (inactive) | 0.478 µM (active) | 4.93 µM (inactive) | 1.25 µM (inactive) | 0.834 µM (active) | 1.61 µM (inactive) | 2.44 µM (inactive) | 0.514 µM (active) | 0.785 µM (active)
7 | c1cc(C[S+]2CCCC2)ccc1C[S+]1CCCC1 | > 100 µM (inactive) | > 100 µM (inactive) | > 100 µM (inactive) | > 100 µM (inactive) | > 100 µM (inactive) | > 100 µM (inactive) | > 100 µM (inactive) | > 100 µM (inactive) | > 100 µM (inactive) | > 100 µM (inactive) | > 100 µM (inactive) | > 100 µM (inactive) | > 100 µM (inactive) | > 100 µM (inactive) | > 100 µM (inactive) | > 100 µM (inactive) | > 100 µM (inactive) | > 100 µM (inactive) | > 100 µM (inactive) | > 100 µM (inactive)
8 | CC(C)[C@]12O[C@H]1[C@@H]1O[C@]13[C@]1(O[C@H]1C[C@H]1C4=C(CC[C@@]13C)C(=O)OC4)[C@@H]2O [TRIPTOLIDE] | 0.00679 µM (active) | 0.011 µM (active) | 0.0183 µM (active) | 0.00258 µM (active) | 0.00667 µM (active) | 0.00701 µM (active) | 0.0274 µM (active) | < 0.0136 µM (active) | 0.00427 µM (active) | 0.0145 µM (active) | 0.00764 µM (active) | 0.0261 µM (active) | 0.0203 µM (active) | 0.00637 µM (active) | 0.0474 µM (active) | 0.00861 µM (active) | 0.104 µM (active) | < 0.014 µM (active) | 0.061 µM (active) | 0.0124 µM (active)
